For data set [1] the following is noted: in vivo; cited from earlier work.
Data set [2] deals with carrageenan-induced hind paw inflammation in rats. Description: Carrageenan-induced paw oedema rat model, paw volume measurements. The class given is in vivo. The following applies: RGC 400 mg/kg oral or indomethacin 2 mg/kg 2 h before carrageenan, two-way ANOVA, Bonferroni, p<0.001. An excerpt: The aim of the present study was to evaluate in vivo anti-inflammatory activity of RGC (Red Grape Cells) made according to the large scale process of the invention in an acute inflammation model in rats so as to verify the efficiency of the cells produced according to the invention. One of the experimental models most widely used to study acute inflammation in rodents is that based on the intraplantar administration of carrageenan. The study assessed the efficacy of the RGC by two methods: • 1. Paw volume measurements • 2. Inflammatory nociception in freely moving rats • Red Grape Cells (RGC) prepared according to example 1. • RGC was administered orally at dose of 400 mg/kg body weight as a suspension in sterile drinking water, 2 h before carrageenan injection. The dose level was 40 mg/ml. Each rat was dosed with 1 ml of suspension per 100 g body weight. • RGC Composition: […] Rats were divided into three groups of eight rats in each group. The rats in all groups were injected with 1% Carrageenan ([…]) or sterile saline (0.9% NaCl) into the sub plantar tissue of left hind paw of each rat. The Following Tests were Performed: • paw volumes were measured hourly just before carrageenan injection at time point 0 and 1, 2, 4 hours after injection using caliper. • The paw dimensions were measured in two axes and paw volume was calculated. […]

Data set [3] has as its system carrageenan-induced behavioral hyperalgesia in rats. Description: Hot plate method for measuring inflammatory nociception in freely moving rats. The class given is in vivo, rat. The following applies: RGC 400 mg/kg oral (p<0.01) or indomethacin 2 mg/kg (p<0.05-0.01). The method, then: The study assessed the efficacy of the RGC by two methods: • 1. Paw volume measurements • 2. Inflammatory nociception in freely moving rats • Red Grape Cells (RGC) prepared according to example 1. • RGC was administered orally at dose of 400 mg/kg body weight as a suspension in sterile drinking water, 2 h before carrageenan injection. The dose level was 40 mg/ml. Each rat was dosed with 1 ml of suspension per 100 g body weight. • RGC Composition: […] Rats were divided into three groups of eight rats in each group. The rats in all groups were injected with 1% Carrageenan ([…]) or sterile saline (0.9% NaCl) into the sub plantar tissue of left hind paw of each rat. The Following Tests were Performed: The hot plate method was used to determine inflammatory nociception in freely moving rates. After inducing edema and treatment with vehicle, indomethacin or RGC preparation, the rats were placed on a hot plate maintained at a temperature of 55±0.5° C. The latency to flick or lick the hind paw or jump from the hot plate in comparison to its baseline was considered as the reaction time. […]

The nature of data set [4]: Solubility assay of RES sources in water vs 80% methanol. The class given is physicochemical. The method, then:
RGC, synthetic resveratrol (S-RES; Sigma-Aldrich) and resveratrol extract from the plant Polygonum Capsidatum (plant-RES) were dissolved in 80% methanol to achieve 100% dissolution. Then, all RES sources were dissolved in water at pH 2 and pH 7 and the percentage of dissolution in water was compared to the dissolution in methanol. The RES in all samples was monitored at 306 nm, based on its characteristic absorption profile, and its concentration was determined by a calibration curve of resveratrol analytical standard.

We go through 3 compounds from US20150275169A1, “PROCESS FOR THE LARGE SCALE PRODUCTION OF FRUIT CELLS” (BIO HARVEST LTD., priority 2012, published 2015).

“Also recorded” adds a separate entry of the source.

On to `Oc1ccc(/C=C/c2cc(O)cc(O)c2)cc1`, for which the “shape of concentration time curve” value in data set [1] is given as “distinct single concentration peak”.
In the case of `COc1ccc2c(c1)c(CC(=O)O)c(C)n2C(=O)c1ccc(Cl)cc1` [indomethacin], the “paw edema (volume %), comparison to control group (1M)” value in data set [2] was “statistically significant difference at 2 and 4 h”. Further, in data set [3] (FIG. 3), the “Hot plate latency delta, baseline-actual time, comparison to vehicle control (1M)” value was “significant decrease in the latency delta of response to the thermal stimulus, 2 and 4 hours after carrageenan injection; also recorded: statistically significant difference at 2 and 4 h”. Besides, in data set [3] (hot plate 55°C, FIG. 2), the “Hot plate latency, % from baseline, comparison to control group (1M)” value is “statistically significant difference at 2 and 4 h”.
Turning to “resveratrol (trans-3,5,4′-trihydroxystilbene) [Synthetic-RES]”, the “dissolution in 80% methanol solution” value in data set [4] (80% methanol) is “completely dissolved”. In data set [4] (acidified water pH=2 as well as pH 7.0, RES monitored at 306 nm, FIG. 5), the “dissolution of RES in water, percentage compared to dissolution in methanol” value is recorded as 7%.
